Data reported in US11236129B2, “IL-17A binding peptides and medical uses thereof” (Dompe' Farmaceutici S.P.A., priority 2018, dated 2022).
pIC50: −log10 of the molar value. Residues, ends and D or L forms follow the SMILES beside them.

Target: IL-17RA/IL17RC dimerization induced by IL-17A (Homo sapiens, UniProt Q16552)
Experiment: IL-17RA/IL17RC dimerization assay in response to IL-17A (PathHunter Cytokine Receptor Assay)
Format: cell-based
Settings: IL-17A at EC80; read-out: IC50 in IL-17RA/IL7RC dimerization assay
Method in brief: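 PathHunter cells with IL-17RA and IL-17RC tagged for β-galactosidase complementation were preincubated 60 min with peptide (1% vehicle). IL-17A was then added at EC80 for 6–16 h at 37 °C, and chemiluminescence was read. Inhibition is relative to the EC80 and vehicle controls.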

Sequence of IL-17RA/IL17RC dimerization induced by IL-17A (Q16552 24-155): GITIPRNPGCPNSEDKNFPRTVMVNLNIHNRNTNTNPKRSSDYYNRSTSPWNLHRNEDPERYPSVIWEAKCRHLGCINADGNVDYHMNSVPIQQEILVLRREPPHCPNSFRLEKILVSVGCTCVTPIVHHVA

Row | Structure (SMILES) | pIC50
1 | CC[C@H](C)[C@H](NC(C)=O)C(=O)N[C@@H](Cc1c[nH]cn1)C(=O)N[C@H](C(=O)N[C@@H](CC(N)=O)C(=O)N[C@H](C(=O)N1CCC[C@H]1C(=O)N[C@@H](C)C(=O)N[C@@H](CC(=O)O)C(=O)N[C@@H](CC(C)C)C(=O)N[C@@H](Cc1c[nH]c2ccccc12)C(=O)N[C@@H](CC(=O)O)C(=O)N[C@@H](Cc1c[nH]c2ccccc12)C(=O)N[C@H](C(=O)N[C@@H](CC(N)=O)C(=O)N[C@@H](CCCCN)C(N)=O)[C@@H](C)CC)[C@@H](C)CC)C(C)C [SEQ ID NO: 177] (Ac-IHVNIPADLWDWINK-NH2) | > 5.00
2 | CC[C@H](C)[C@H](NC(C)=O)C(=O)N[C@@H](Cc1c[nH]cn1)C(=O)N[C@H](C(=O)N[C@@H](CCC(N)=O)C(=O)N[C@H](C(=O)N1CCC[C@H]1C(=O)N[C@@H](C)C(=O)N[C@@H](CC(=O)O)C(=O)N[C@@H](CC(C)C)C(=O)N[C@@H](Cc1c[nH]c2ccccc12)C(=O)N[C@@H](CC(=O)O)C(=O)N[C@@H](Cc1c[nH]c2ccccc12)C(=O)N[C@H](C(=O)N[C@@H](CC(N)=O)C(=O)N[C@@H](CCCCN)C(N)=O)[C@@H](C)CC)[C@@H](C)CC)C(C)C [SEQ ID NO: 178] (Ac-IHVQIPADLWDWINK-NH2) | > 5.00
3 | CC[C@H](C)[C@H](NC(C)=O)C(=O)N[C@@H](Cc1c[nH]cn1)C(=O)N[C@H](C(=O)N[C@H](C(=O)N[C@@H](C)C(=O)N1CCC[C@H]1C(=O)N[C@@H](C)C(=O)N[C@@H](CC(=O)O)C(=O)N[C@@H](CC(C)C)C(=O)N[C@@H](Cc1c[nH]c2ccccc12)C(=O)N[C@@H](CC(=O)O)C(=O)N[C@@H](Cc1c[nH]c2ccccc12)C(=O)N[C@H](C(=O)N[C@@H](CC(N)=O)C(=O)N[C@@H](CCCCN)C(N)=O)[C@@H](C)CC)[C@@H](C)O)C(C)C [SEQ ID NO: 179] (Ac-IHVTAPADLWDWINK-NH2) | > 5.00
4 | CC[C@H](C)[C@H](NC(C)=O)C(=O)N[C@@H](Cc1c[nH]cn1)C(=O)N[C@H](C(=O)N[C@H](C(=O)NCC(=O)N1CCC[C@H]1C(=O)N[C@@H](C)C(=O)N[C@@H](CC(=O)O)C(=O)N[C@@H](CC(C)C)C(=O)N[C@@H](Cc1c[nH]c2ccccc12)C(=O)N[C@@H](CC(=O)O)C(=O)N[C@@H](Cc1c[nH]c2ccccc12)C(=O)N[C@H](C(=O)N[C@@H](CC(N)=O)C(=O)N[C@@H](CCCCN)C(N)=O)[C@@H](C)CC)[C@@H](C)O)C(C)C [SEQ ID NO: 180] (Ac-IHVTGPADLWDWINK-NH2) | > 5.00
5 | CC[C@H](C)[C@H](NC(C)=O)C(=O)N[C@@H](Cc1c[nH]cn1)C(=O)N[C@H](C(=O)N[C@H](C(=O)N[C@@H](CC(C)C)C(=O)N1CCC[C@H]1C(=O)N[C@@H](C)C(=O)N[C@@H](CC(=O)O)C(=O)N[C@@H](CC(C)C)C(=O)N[C@@H](Cc1c[nH]c2ccccc12)C(=O)N[C@@H](CC(=O)O)C(=O)N[C@@H](Cc1c[nH]c2ccccc12)C(=O)N[C@H](C(=O)N[C@@H](CC(N)=O)C(=O)N[C@@H](CCCCN)C(N)=O)[C@@H](C)CC)[C@@H](C)O)C(C)C [SEQ ID NO: 181] (Ac-IHVTLPADLWDWINK-NH2) | > 5.00
6 | CC[C@H](C)[C@H](NC(C)=O)C(=O)N[C@@H](Cc1c[nH]cn1)C(=O)N[C@H](C(=O)N[C@H](C(=O)N1CCC[C@H]1C(=O)N1CCC[C@H]1C(=O)N[C@@H](C)C(=O)N[C@@H](CC(=O)O)C(=O)N[C@@H](CC(C)C)C(=O)N[C@@H](Cc1c[nH]c2ccccc12)C(=O)N[C@@H](CC(=O)O)C(=O)N[C@@H](Cc1c[nH]c2ccccc12)C(=O)N[C@H](C(=O)N[C@@H](CC(N)=O)C(=O)N[C@@H](CCCCN)C(N)=O)[C@@H](C)CC)[C@@H](C)O)C(C)C [SEQ ID NO: 182] (Ac-IHVTPPADLWDWINK-NH2) | > 5.00
7 | CC[C@H](C)[C@H](NC(C)=O)C(=O)N[C@@H](Cc1c[nH]cn1)C(=O)N[C@H](C(=O)N[C@H](C(=O)N[C@H](C(=O)N1CCC[C@H]1C(=O)N[C@@H](C)C(=O)N[C@@H](CC(=O)O)C(=O)N[C@@H](CC(C)C)C(=O)N[C@@H](Cc1c[nH]c2ccccc12)C(=O)N[C@@H](CC(=O)O)C(=O)N[C@@H](Cc1c[nH]c2ccccc12)C(=O)N[C@H](C(=O)N[C@@H](CC(N)=O)C(=O)N[C@@H](CCCCN)C(N)=O)[C@@H](C)CC)C(C)C)[C@@H](C)O)C(C)C [SEQ ID NO: 183] (Ac-IHVTVPADLWDWINK-NH2) | > 5.00

Results, then the compound that gave them:

Row | pIC50 | Structure (SMILES)
8 | > 5.00 | CC[C@H](C)[C@H](NC(C)=O)C(=O)N[C@@H](Cc1c[nH]cn1)C(=O)N[C@H](C(=O)N[C@H](C(=O)N[C@@H](Cc1ccccc1)C(=O)N1CCC[C@H]1C(=O)N[C@@H](C)C(=O)N[C@@H](CC(=O)O)C(=O)N[C@@H](CC(C)C)C(=O)N[C@@H](Cc1c[nH]c2ccccc12)C(=O)N[C@@H](CC(=O)O)C(=O)N[C@@H](Cc1c[nH]c2ccccc12)C(=O)N[C@H](C(=O)N[C@@H](CC(N)=O)C(=O)N[C@@H](CCCCN)C(N)=O)[C@@H](C)CC)[C@@H](C)O)C(C)C [SEQ ID NO: 184] (Ac-IHVTFPADLWDWINK-NH2)
9 | > 5.00 | CC[C@H](C)[C@H](NC(C)=O)C(=O)N[C@@H](Cc1c[nH]cn1)C(=O)N[C@H](C(=O)N[C@H](C(=O)N[C@@H](Cc1ccc(O)cc1)C(=O)N1CCC[C@H]1C(=O)N[C@@H](C)C(=O)N[C@@H](CC(=O)O)C(=O)N[C@@H](CC(C)C)C(=O)N[C@@H](Cc1c[nH]c2ccccc12)C(=O)N[C@@H](CC(=O)O)C(=O)N[C@@H](Cc1c[nH]c2ccccc12)C(=O)N[C@H](C(=O)N[C@@H](CC(N)=O)C(=O)N[C@@H](CCCCN)C(N)=O)[C@@H](C)CC)[C@@H](C)O)C(C)C [SEQ ID NO: 185] (Ac-IHVTYPADLWDWINK-NH2)
10 | > 5.00 | CC[C@H](C)[C@H](NC(C)=O)C(=O)N[C@@H](Cc1c[nH]cn1)C(=O)N[C@H](C(=O)N[C@H](C(=O)N[C@H](C(=O)N[C@@H](C)C(=O)N[C@@H](C)C(=O)N[C@@H](CC(=O)O)C(=O)N[C@@H](CC(C)C)C(=O)N[C@@H](Cc1c[nH]c2ccccc12)C(=O)N[C@@H](CC(=O)O)C(=O)N[C@@H](Cc1c[nH]c2ccccc12)C(=O)N[C@H](C(=O)N[C@@H](CC(N)=O)C(=O)N[C@@H](CCCCN)C(N)=O)[C@@H](C)CC)[C@@H](C)CC)[C@@H](C)O)C(C)C [SEQ ID NO: 186] (Ac-IHVTIAADLWDWINK-NH2)
11 | > 5.00 | CC[C@H](C)[C@H](NC(C)=O)C(=O)N[C@@H](Cc1c[nH]cn1)C(=O)N[C@H](C(=O)N[C@H](C(=O)N[C@H](C(=O)NCC(=O)N[C@@H](C)C(=O)N[C@@H](CC(=O)O)C(=O)N[C@@H](CC(C)C)C(=O)N[C@@H](Cc1c[nH]c2ccccc12)C(=O)N[C@@H](CC(=O)O)C(=O)N[C@@H](Cc1c[nH]c2ccccc12)C(=O)N[C@H](C(=O)N[C@@H](CC(N)=O)C(=O)N[C@@H](CCCCN)C(N)=O)[C@@H](C)CC)[C@@H](C)CC)[C@@H](C)O)C(C)C [SEQ ID NO: 187] (Ac-IHVTIGADLWDWINK-NH2)
12 | > 5.00 | CC[C@H](C)[C@H](NC(C)=O)C(=O)N[C@@H](Cc1c[nH]cn1)C(=O)N[C@H](C(=O)N[C@H](C(=O)N[C@H](C(=O)N[C@@H](CC(C)C)C(=O)N[C@@H](C)C(=O)N[C@@H](CC(=O)O)C(=O)N[C@@H](CC(C)C)C(=O)N[C@@H](Cc1c[nH]c2ccccc12)C(=O)N[C@@H](CC(=O)O)C(=O)N[C@@H](Cc1c[nH]c2ccccc12)C(=O)N[C@H](C(=O)N[C@@H](CC(N)=O)C(=O)N[C@@H](CCCCN)C(N)=O)[C@@H](C)CC)[C@@H](C)CC)[C@@H](C)O)C(C)C [SEQ ID NO: 188] (Ac-IHVTILADLWDWINK-NH2)
13 | > 5.00 | CC[C@H](C)[C@H](NC(C)=O)C(=O)N[C@@H](Cc1c[nH]cn1)C(=O)N[C@H](C(=O)N[C@H](C(=O)N[C@H](C(=O)N[C@H](C(=O)N[C@@H](C)C(=O)N[C@@H](CC(=O)O)C(=O)N[C@@H](CC(C)C)C(=O)N[C@@H](Cc1c[nH]c2ccccc12)C(=O)N[C@@H](CC(=O)O)C(=O)N[C@@H](Cc1c[nH]c2ccccc12)C(=O)N[C@H](C(=O)N[C@@H](CC(N)=O)C(=O)N[C@@H](CCCCN)C(N)=O)[C@@H](C)CC)C(C)C)[C@@H](C)CC)[C@@H](C)O)C(C)C [SEQ ID NO: 189] (Ac-IHVTIVADLWDWINK-NH2)
14 | > 5.00 | CC[C@H](C)[C@H](NC(C)=O)C(=O)N[C@@H](Cc1c[nH]cn1)C(=O)N[C@H](C(=O)N[C@H](C(=O)N[C@H](C(=O)N[C@H](C(=O)N[C@@H](C)C(=O)N[C@@H](CC(=O)O)C(=O)N[C@@H](CC(C)C)C(=O)N[C@@H](Cc1c[nH]c2ccccc12)C(=O)N[C@@H](CC(=O)O)C(=O)N[C@@H](Cc1c[nH]c2ccccc12)C(=O)N[C@H](C(=O)N[C@@H](CC(N)=O)C(=O)N[C@@H](CCCCN)C(N)=O)[C@@H](C)CC)[C@@H](C)CC)[C@@H](C)CC)[C@@H](C)O)C(C)C [SEQ ID NO: 190] (Ac-IHVTIIADLWDWINK-NH2)
15 | > 5.00 | CC[C@H](C)[C@H](NC(C)=O)C(=O)N[C@@H](Cc1c[nH]cn1)C(=O)N[C@H](C(=O)N[C@H](C(=O)N[C@H](C(=O)N[C@@H](CC(N)=O)C(=O)N[C@@H](C)C(=O)N[C@@H](CC(=O)O)C(=O)N[C@@H](CC(C)C)C(=O)N[C@@H](Cc1c[nH]c2ccccc12)C(=O)N[C@@H](CC(=O)O)C(=O)N[C@@H](Cc1c[nH]c2ccccc12)C(=O)N[C@H](C(=O)N[C@@H](CC(N)=O)C(=O)N[C@@H](CCCCN)C(N)=O)[C@@H](C)CC)[C@@H](C)CC)[C@@H](C)O)C(C)C [SEQ ID NO: 191] (Ac-IHVTINADLWDWINK-NH2)
16 | > 5.00 | CC[C@H](C)[C@H](NC(C)=O)C(=O)N[C@@H](Cc1c[nH]cn1)C(=O)N[C@H](C(=O)N[C@H](C(=O)N[C@H](C(=O)N1CCC[C@H]1C(=O)NCC(=O)N[C@@H](CC(=O)O)C(=O)N[C@@H](CC(C)C)C(=O)N[C@@H](Cc1c[nH]c2ccccc12)C(=O)N[C@@H](CC(=O)O)C(=O)N[C@@H](Cc1c[nH]c2ccccc12)C(=O)N[C@H](C(=O)N[C@@H](CC(N)=O)C(=O)N[C@@H](CCCCN)C(N)=O)[C@@H](C)CC)[C@@H](C)CC)[C@@H](C)O)C(C)C [SEQ ID NO: 192] (Ac-IHVTIPGDLWDWINK-NH2)
